Here are results for 17 compounds from ChEMBL document CHEMBL1156689, “Comparison of the cytotoxic activities of naturally occurring hydroxyanthraquinones and hydroxynaphthoquinones” (Eur J Med Chem, 2008).

The subject of one test is HepG2. The test can be described thus: Cytotoxicity against MDR1 Pgp overexpressing human HepG2 cells after 24 hrs by MTT assay. The class given is functional, cell-based. The note with it: HepG2, 24 h. Background: Formazan colour is commonly taken as a measure of viable cells.
A further test concerns HCT-116. The test can be described thus: Cytotoxicity against MDR1 Pgp under-expressing human HCT116 cells after 24 hrs by MTT assay. In kind it is functional, cell-based. The settings on record: HCT-116, 24 h.

Bounds are passed on as bounds.

By IC50 is commonly meant the concentration that inhibits the measured activity by half. A high value points to weaker potency in that assay. Take `O=C1c2cc(CO)cc(O)c2C(=O)c2c(O[C@@H]3O[C@H](CO)[C@@H](O)[C@H](O)[C@H]3O)cccc21`: the IC50 with HepG2 was above 100 µM; in the test on HCT-116, 75 µM.
The corresponding values for `CCO[C@H](CC=C(C)C)C1=CC(=O)c2c(O)ccc(O)c2C1=O` [ETHYLSHIKONIN] are 0.42 µM and 0.45 µM.
For `CC(=O)O[C@@H](CC=C(C)C)C1=CC(=O)c2c(O)ccc(O)c2C1=O` [ACETYLALKANNIN], the IC50 with HepG2 amounted to 0.39 µM; in the test with HCT-116 it was 0.34 µM.
As for `COc1cc(O)c2c(c1)C(=O)c1cc(C)cc(O)c1C2=O` [PHYSCION], the results for the IC50 in the test with HepG2 and in the test with HCT-116 were 77.3 µM and 19 µM, respectively.
Regarding `Cc1cc(O)c2c(c1)C(=O)c1cccc(O)c1C2=O` [CHRYSOPHANOL], the IC50 in the test on HepG2 stood at 64.4 µM; in the test with HCT-116, 47.4 µM.
Turning to `CC(C)=CC[C@@H](O)C1=CC(=O)c2c(O)ccc(O)c2C1=O` [SHIKONIN], the IC50 amounted to 0.24 µM in the test with HepG2 and 0.23 µM with HCT-116.
The like results for `Cc1cc(O)c2c(c1)C(=O)c1cc(O)cc(O)c1C2=O` [EMODIN] were, in that order, 5.2 µM and 5.7 µM.
The corresponding values for `CC(C)=CC[C@@H](OC(=O)C(C)C)C1=CC(=O)c2c(O)ccc(O)c2C1=O` [ISOBUTYLSHIKONIN] are 0.22 µM and 0.34 µM.
As for `O=C(O)c1cc(O)c2c(c1)[C@H]([C@H]1c3cc(C(=O)O)cc(O)c3C(=O)c3c(O[C@@H]4O[C@H](CO)[C@@H](O)[C@H](O)[C@H]4O)cccc31)c1cccc(O[C@@H]3O[C@H](CO)[C@@H](O)[C@H](O)[C@H]3O)c1C2=O` [Sennoside A], the IC50 in the test with HepG2 amounted to 51.6 µM; with HCT-116, 68.2 µM.
The like results for `CCC(=O)Oc1cccc2c1C(=O)c1c(OC(=O)CC)cc(C)cc1C2=O` were, in that order, above 100 µM and 14.8 µM.
The corresponding values for `O=C(O)c1cc(O)c2c(c1)C(=O)c1cccc(O)c1C2=O` [RHEIN] are 12.3 µM and 13 µM.
As to `CCC(=O)Oc1cc(C)cc2c1C(=O)c1c(OC(=O)CC)cc(OC)cc1C2=O`, the IC50 with HepG2 was above 100 µM; in the test with HCT-116, 9.2 µM.
`CC(=O)O[C@H](CC=C(C)C)C1=CC(=O)c2c(O)ccc(O)c2C1=O` [ACETYLSHIKONIN]: the values for the IC50 in the test with HepG2 and in the test with HCT-116 were 0.38 µM and 0.45 µM, respectively.
Take `CC(C)=CC[C@H](OC(=O)C1OC1C)C1=CC(=O)c2c(O)ccc(O)c2C1=O` (some centres undefined): the IC50 with HepG2 is 0.34 µM; in the test on HCT-116 it was 0.39 µM.
With `CC(C)=CC[C@H](OC(=O)C(C)C)C1=CC(=O)c2c(O)ccc(O)c2C1=O` [ISOBUTYLALKANNIN], the results for the IC50 in the test on HepG2 and in the test with HCT-116 were 0.42 µM and 0.3 µM, respectively.
On to `O=C1c2cccc(O)c2C(=O)c2c(O)cc(CO)cc21` [ALOE-EMODIN], for which the IC50 with HepG2 is 10 µM; in the test on HCT-116 it was 8.7 µM.
As to `CC(C)=CC[C@@H](OC(=O)CC(C)(C)O)C1=CC(=O)c2c(O)ccc(O)c2C1=O` [BETA-HYDROXYISOVALERYLSHIKONIN], the IC50 worked out at 0.59 µM in the test on HepG2 and 0.37 µM in the test on HCT-116.
